Data from US9562085B2, “Antimicrobial peptide” (priority 2013, dated 2017).
Non-standard residues stand in square brackets, D forms with d. Residues, ends and D or L forms follow the SMILES beside them. *: point of attachment. Myristoyl = CCCCCCCCCCCCCC(=O)*

Tested on: S. aureus JAR
Format: cell-based
Conditions: JAR, 2 h
Description: S. aureus JAR is described in Campoccia et al. (Int. J. Artif. Organs, 2008 September; 31(9):841-7).
For the in vitro killing assay with P10 variants, S. aureus JAR ([…] CFU/ml) were incubated for 2 hours at 37° C. with various concentrations of the peptides in PBS or in PBS/human plasma (1/1, v/v). […] The LC99.9 is the average value of two independent experiments.

| Compound | LC99.9 (μM) (50% plasma) | LC99.9 (μM) (PBS) |
| --- | --- | --- |
| CC[C@H](C)[C@H](NC(=O)[C@H](CCCCN)NC(=O)[C@H](CCCCN)NC(=O)[C@H](Cc1ccc(O)cc1)NC(=O)[C@@H](CCC(=O)O)NC(=O)[C@H](CCCNC(=N)N)NC(=O)[C@H](C)NC(=O)[C@H](CC(C)C)NC(C)=O)C(=O)N[C@H](C(=O)N[C@@H](CCC(=O)O)C(=O)N[C@@H](CCCCN)C(=O)N[C@@H](CC(C)C)C(=O)N[C@@H](CCCCN)C(=O)N[C@@H](CCCNC(=N)N)C(=O)N[C@@H](Cc1c[nH]c2ccccc12)C(=O)N[C@@H](CC(C)C)C(=O)N[C@@H](CCCNC(=N)N)C(=O)N[C@@H](CCC(N)=O)C(=O)N[C@H](C(=O)N[C@@H](CC(C)C)C(=O)N[C@@H](CCCNC(=N)N)C(=O)N[C@H](C(=O)N[C@@H](CC(C)C)C(=O)N[C@@H](CCCNC(=N)N)C(N)=O)[C@@H](C)O)C(C)C)C(C)C [Peptide 1301-4, JLAReYKKIVEKLKRWLRQVLRTLRB] (Ac-LAR[dE]YKKIVEKLKRWLRQVLRTLR-NH2) | 38.4 µM | 0.6 µM |
| Ac-LAREYRKIVEKLKRWLRQVLRTLR-NH2 [Peptide 1302-27, JLAREYRKIVEKLKRWLRQVLRTLRB] | 76.8 µM | 0.8 µM |
| Ac-LAREYKKIVEKLKRWLRQVLKTLR-NH2 [Peptide 1302-50, JLAREYKKIVEKLKRWLRQVLKTLRB] | 51.2 µM | 0.8 µM |
| Ac-VAREYKKIVEKLKRWLRQVLRTLR-NH2 [Peptide 1302-18, JVAREYKKIVEKLKRWLRQVLRTLRB] | 76.8 µM | 1.6 µM |
| CC[C@H](C)[C@H](NC(=O)[C@H](CCCCN)NC(=O)[C@H](CCCCN)NC(=O)[C@H](Cc1ccc(O)cc1)NC(=O)[C@H](CCC(=O)O)NC(=O)[C@H](CCCNC(=N)N)NC(=O)[C@H](C)NC(=O)[C@H](CC(C)C)NC(C)=O)C(=O)N[C@H](C(=O)N[C@@H](CCC(=O)O)C(=O)N[C@@H](CCCCN)C(=O)N[C@@H](CC(C)C)C(=O)N[C@@H](CCCCN)C(=O)N[C@@H](CCCNC(=N)N)C(=O)N[C@@H](Cc1c[nH]c2ccccc12)C(=O)N[C@H](CC(C)C)C(=O)N[C@@H](CCCNC(=N)N)C(=O)N[C@@H](CCC(N)=O)C(=O)N[C@H](C(=O)N[C@@H](CC(C)C)C(=O)N[C@@H](CCCNC(=N)N)C(=O)N[C@H](C(=O)N[C@@H](CC(C)C)C(=O)N[C@@H](CCCNC(=N)N)C(N)=O)[C@@H](C)O)C(C)C)C(C)C [Peptide 1301-16, JLAREYKKIVEKLKRWlRQVLRTLRB] (Ac-LAREYKKIVEKLKRW[dL]RQVLRTLR-NH2) | 38.4 µM | 0.6 µM |
| CC[C@H](C)[C@H](NC(=O)[C@H](CCCCN)NC(=O)[C@H](CCCCN)NC(=O)[C@H](Cc1ccc(O)cc1)NC(=O)[C@H](CCC(=O)O)NC(=O)[C@H](CCCNC(=N)N)NC(=O)[C@H](C)NC(=O)[C@H](CC(C)C)NC(C)=O)C(=O)N[C@H](C(=O)N[C@H](CCC(=O)O)C(=O)N[C@@H](CCCCN)C(=O)N[C@@H](CC(C)C)C(=O)N[C@@H](CCCCN)C(=O)N[C@@H](CCCNC(=N)N)C(=O)N[C@@H](Cc1c[nH]c2ccccc12)C(=O)N[C@@H](CC(C)C)C(=O)N[C@@H](CCCNC(=N)N)C(=O)N[C@@H](CCC(N)=O)C(=O)N[C@H](C(=O)N[C@@H](CC(C)C)C(=O)N[C@@H](CCCNC(=N)N)C(=O)N[C@H](C(=O)N[C@@H](CC(C)C)C(=O)N[C@@H](CCCNC(=N)N)C(N)=O)[C@@H](C)O)C(C)C)C(C)C [Peptide 1301-10, JLAREYKKIVeKLKRWLRQVLRTLRB] (Ac-LAREYKKIV[dE]KLKRWLRQVLRTLR-NH2) | 38.4 µM | 0.6 µM |
| CC[C@H](C)[C@H](NC(=O)[C@H](CCCCN)NC(=O)[C@H](CCCCN)NC(=O)[C@H](Cc1ccc(O)cc1)NC(=O)[C@H](CCC(=O)O)NC(=O)[C@H](CCCNC(=N)N)NC(=O)[C@H](C)NC(=O)[C@H](CC(C)C)NC(C)=O)C(=O)N[C@H](C(=O)N[C@@H](CCC(=O)O)C(=O)N[C@@H](CCCCN)C(=O)N[C@@H](CC(C)C)C(=O)N[C@@H](CCCCN)C(=O)N[C@@H](CCCNC(=N)N)C(=O)N[C@H](Cc1c[nH]c2ccccc12)C(=O)N[C@@H](CC(C)C)C(=O)N[C@@H](CCCNC(=N)N)C(=O)N[C@@H](CCC(N)=O)C(=O)N[C@H](C(=O)N[C@@H](CC(C)C)C(=O)N[C@@H](CCCNC(=N)N)C(=O)N[C@H](C(=O)N[C@@H](CC(C)C)C(=O)N[C@@H](CCCNC(=N)N)C(N)=O)[C@@H](C)O)C(C)C)C(C)C [Peptide 1301-15, JLAREYKKIVEKLKRwLRQVLRTLRB] (Ac-LAREYKKIVEKLKR[dW]LRQVLRTLR-NH2) | 38.4 µM | 0.4 µM |
| Ac-LAREYKKIVEKLKRWLRQVLRT-NH2 [Peptide 1302-57, JLAREYKKIVEKLKRWLRQVLRTB] | 51.2 µM | 1.6 µM |
| CC[C@@H](C)[C@@H](NC(=O)[C@H](CCCCN)NC(=O)[C@H](CCCCN)NC(=O)[C@H](Cc1ccc(O)cc1)NC(=O)[C@H](CCC(=O)O)NC(=O)[C@H](CCCNC(=N)N)NC(=O)[C@H](C)NC(=O)[C@H](CC(C)C)NC(C)=O)C(=O)N[C@H](C(=O)N[C@@H](CCC(=O)O)C(=O)N[C@@H](CCCCN)C(=O)N[C@@H](CC(C)C)C(=O)N[C@@H](CCCCN)C(=O)N[C@@H](CCCNC(=N)N)C(=O)N[C@@H](Cc1c[nH]c2ccccc12)C(=O)N[C@@H](CC(C)C)C(=O)N[C@@H](CCCNC(=N)N)C(=O)N[C@@H](CCC(N)=O)C(=O)N[C@H](C(=O)N[C@@H](CC(C)C)C(=O)N[C@@H](CCCNC(=N)N)C(=O)N[C@H](C(=O)N[C@@H](CC(C)C)C(=O)N[C@@H](CCCNC(=N)N)C(N)=O)[C@@H](C)O)C(C)C)C(C)C [Peptide 1301-8, JLAREYKKiVEKLKRWLRQVLRTLRB] (Ac-LAREYKK[dI]VEKLKRWLRQVLRTLR-NH2) | 38.4 µM | 0.6 µM |
| Ac-LAKEYKKIVEKLKRWLRQVLRTLR-NH2 [Peptide 1302-23, JLAKEYKKIVEKLKRWLRQVLRTLRB] | 102.4 µM | 1.6 µM |
| Ac-LAREYKKIVEKLKRWLRQVL-NH2 [Peptide 1302-60, JLAREYKKIVEKLKRWLRQVLB] | 102.4 µM | 1.6 µM |
| Ac-LAHEYKKIVEKLKRWLRQVLRTLR-NH2 [Peptide 1302-24, JLAHEYKKIVEKLKRWLRQVLRTLRB] | 102.4 µM | 1.6 µM |
| CC[C@H](C)[C@H](NC(=O)[C@H](CCCCN)NC(=O)[C@H](CCCCN)NC(=O)[C@H](Cc1ccc(O)cc1)NC(=O)[C@H](CCC(=O)O)NC(=O)[C@H](CCCNC(=N)N)NC(=O)[C@H](C)NC(=O)[C@H](CC(C)C)NC(C)=O)C(=O)N[C@H](C(=O)N[C@@H](CCC(=O)O)C(=O)N[C@@H](CCCCN)C(=O)N[C@@H](CC(C)C)C(=O)N[C@@H](CCCCN)C(=O)N[C@@H](CCCNC(=N)N)C(=O)N[C@@H](Cc1c[nH]c2ccccc12)C(=O)N[C@@H](CC(C)C)C(=O)N[C@@H](CCCNC(=N)N)C(=O)N[C@@H](CCC(N)=O)C(=O)N[C@H](C(=O)N[C@@H](CC(C)C)C(=O)N[C@@H](CCCNC(=N)N)C(=O)N[C@H](C(=O)N[C@@H](CC(C)C)C(=O)N[C@H](CCCNC(=N)N)C(N)=O)[C@@H](C)O)C(C)C)C(C)C [Peptide 1301-24, JLAREYKKIVEKLKRWLRQVLRTLrB] (Ac-LAREYKKIVEKLKRWLRQVLRTL[dR]-NH2) | 19.2 µM | 0.6 µM |
| Ac-YKKIVEKLKRWLRQVLRTLR-NH2 [Peptide 1302-59, JYKKIVEKLKRWLRQVLRTLRB] | 51.2 µM | 1.6 µM |
| CCCCCCCCCCCCCC(=O)N[C@@H](CC(C)C)C(=O)N[C@@H](C)C(=O)N[C@@H](CCCNC(=N)N)C(=O)N[C@@H](CCC(=O)O)C(=O)N[C@@H](Cc1ccc(O)cc1)C(=O)N[C@@H](CCCCN)C(=O)N[C@@H](CCCCN)C(=O)N[C@H](C(=O)N[C@H](C(=O)N[C@@H](CCC(=O)O)C(=O)N[C@@H](CCCCN)C(=O)N[C@@H](CC(C)C)C(=O)N[C@@H](CCCCN)C(=O)N[C@@H](CCCNC(=N)N)C(=O)N[C@@H](Cc1c[nH]c2ccccc12)C(=O)N[C@@H](CC(C)C)C(=O)N[C@@H](CCCNC(=N)N)C(=O)N[C@@H](CCC(N)=O)C(=O)N[C@H](C(=O)N[C@@H](CC(C)C)C(=O)N[C@@H](CCCNC(=N)N)C(=O)N[C@H](C(=O)N[C@@H](CC(C)C)C(=O)N[C@@H](CCCNC(=N)N)C(N)=O)[C@@H](C)O)C(C)C)C(C)C)[C@@H](C)CC [Peptide 1302-10, uLAREYKKIVEKLKRWLRQVLRTLRB] (Myristoyl-LAREYKKIVEKLKRWLRQVLRTLR-NH2) | 102.4 µM | 2.0 µM |
| Ac-LAREYKKIVEKLKKWLRQVLRTLR-NH2 [Peptide 1302-38, JLAREYKKIVEKLKKWLRQVLRTLRB] | 102.4 µM | 2.4 µM |
| Ac-LAREYKKIVEKLKRWLRSVLRTLR-NH2 [Peptide 1302-44, JLAREYKKIVEKLKRWLRSVLRTLRB] | 76.8 µM | 1.6 µM |
